Drawing on patent US12077503B2, “Substituted cyclic amides and their use as herbicides” (FMC CORPORATION, priority 2015, dated 2024), this text covers pest or weed control for 2 compounds.

Common to all, as to assay type: in vivo
The test system of test [1] is giant foxtail (Setaria faberii). Description: Test A postemergence. The note with it: Setaria faberi, post-emergence, 240 h, Postemergence; for pest or weed control at 125 g/ha: 125 g ai/ha, visual rating about 10 d after treatment, read-out: Foxtail, Giant plant response rating (0 to 100 scale); for pest or weed control at 500 g/ha: 500 g ai/ha, visual injury, 0 to 100 scale (0 no effect, 100 complete control), approx. 10 d, read-out: Plant response rating, Foxtail, Giant. Put shortly:
(§1)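 Preemergence directed soil spray on seeded pots, or postemergence application to plants 2–10 cm, one- to two-leaf. Solvent mixture non-phytotoxic, with surfactant. Scored ~10 d later, visually, 0–100 vs untreated.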

Test [2] has as its system barnyardgrass (Echinochloa crus-galli). Description: Test A postemergence. The note with it: Echinochloa crus-galli, post-emergence, 240 h, Postemergence; for pest or weed control at 125 g/ha: 125 g ai/ha, visual rating about 10 d after treatment, read-out: Barnyardgrass plant response rating (0 to 100 scale, 0 no effect, 100 complete control); for pest or weed control at 500 g/ha: 500 g ai/ha, visual injury, 0 to 100 scale (0 no effect, 100 complete control), approx. 10 d, read-out: Plant response rating, Barnyardgrass. In a few lines: as §1

Test [3] relates to ryegrass, Italian (Italian ryegrass, Lolium multiflorum). Nature of the test: Test A postemergence. The note with it: Lolium multiflorum, post-emergence, 240 h, Postemergence; for pest or weed control at 125 g/ha: 125 g ai/ha, visual rating about 10 d after treatment, read-out: Ryegrass, Italian plant response rating (0 to 100 scale); for pest or weed control at 500 g/ha: 500 g ai/ha, visual injury, 0 to 100 scale (0 no effect, 100 complete control), approx. 10 d, read-out: Plant response rating, Ryegrass, Italian. Put shortly: as §1

Test [4] concerns pigweed (Amaranthus retroflexus). Description: Test A postemergence. The note with it: Amaranthus retroflexus, post-emergence, 240 h, Postemergence; for pest or weed control at 125 g/ha: 125 g ai/ha, visual rating about 10 d after treatment, read-out: Pigweed plant response rating (0 to 100 scale); for pest or weed control at 500 g/ha: 500 g ai/ha, visual injury, 0 to 100 scale (0 no effect, 100 complete control), approx. 10 d, read-out: Plant response rating, Pigweed. Put shortly:
as §1

The subject of test [5] is giant foxtail (Setaria faberii). Nature of the test: Test A preemergence. The note with it: Setaria faberi, pre-emergence, 240 h; for pest or weed control at 500 g/ha: 500 g ai/ha; for pest or weed control at 125 g/ha: 125 g ai/ha. Put shortly: as §1
Another test concerns Kochia (Kochia scoparia). Description: Test A preemergence. The note with it: Bassia scoparia, pre-emergence, 240 h; for pest or weed control at 500 g/ha: 500 g ai/ha; for pest or weed control at 125 g/ha: 125 g ai/ha. Put shortly: as §1
The subject of test [6] is ragweed (common ragweed, Ambrosia elatior). Description: Test A preemergence. The note with it: Ambrosia artemisiifolia, pre-emergence, 240 h; for pest or weed control at 500 g/ha: 500 g ai/ha; for pest or weed control at 125 g/ha: 125 g ai/ha. In a few lines:
as §1

Test [7] concerns barnyardgrass (Echinochloa crus-galli). Description: Test A preemergence. The note with it: Echinochloa crus-galli, pre-emergence, 240 h; for pest or weed control at 500 g/ha: 500 g ai/ha; for pest or weed control at 125 g/ha: 125 g ai/ha. Put shortly: as §1
For test [8], the system named is ryegrass, Italian (Italian ryegrass, Lolium multiflorum). Description: Test A preemergence. The note with it: Lolium multiflorum, pre-emergence, 240 h; for pest or weed control at 500 g/ha: 500 g ai/ha; for pest or weed control at 125 g/ha: 125 g ai/ha. In a few lines:
as §1

The subject of test [9] is pigweed (Amaranthus retroflexus). Description: Test A preemergence. The note with it: Amaranthus retroflexus, pre-emergence, 240 h; for pest or weed control at 500 g/ha: 500 g ai/ha; for pest or weed control at 125 g/ha: 125 g ai/ha.
For test [10], the system named is ducksalad (Heteranthera limosa). Nature of the test: Test B flooded paddy test. The note with it: Heteranthera limosa, Flood, 250 g ai/ha. In a few lines:
(§2)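 Greenhouse paddy pots with 2-leaf stage plants received compound by direct addition to floodwater 3 cm deep, kept at that level. Scored visually at 13–15 d versus controls (0 no effect; 100 complete control).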

The next test deals with rice (Oryra sativa). Nature of the test: Test B flooded paddy test. The note with it: Oryza sativa, Flood, 250 g ai/ha. In a few lines:
as §2

Test [11] relates to sedge, umbrella (small-flower umbrella sedge, Cyperus difformis). Nature of the test: Test B flooded paddy test. The note with it: Cyperus difformis, Flood, 250 g ai/ha. In a few lines:
as §2

For test [12], the system named is barnyardgrass (Echinochloa crus-galli). Nature of the test: Test B flooded paddy test. The note with it: Echinochloa crus-galli, Flood, 250 g ai/ha. Put shortly: as §2

Like-named read-outs stand apart in the source and are kept apart here.

Take `O=C1NC[C@H](c2cnc(C(F)(F)F)nc2)[C@H]1C(=O)Nc1cccc(F)c1F` [Compound 1382]: the pest or weed control at 125 g/ha was determined as 0% in test [1]; 0% in [2]; 0% in [3]; 0% in [4]; 0% in test [5] (Preemergence, 0 to 100 scale (0 no effect, 100 complete control), read-out: Plant response rating, Foxtail, Giant); 0% with Kochia (Kochia scoparia) (Preemergence, 0 to 100 scale (0 no effect, 100 complete control), read-out: Plant response rating, Kochia). Moreover, the pest or weed control at 125 g/ha was 0% in test [6] (Preemergence, 0 to 100 scale (0 no effect, 100 complete control), read-out: Plant response rating, Ragweed); 0% in [7] (Preemergence, 0 to 100 scale (0 no effect, 100 complete control), read-out: Plant response rating, Barnyardgrass); 0% in [8] (Preemergence, 0 to 100 scale (0 no effect, 100 complete control), read-out: Plant response rating, Ryegrass, Italian); 20% in [9] (Preemergence, 0 to 100 scale (0 no effect, 100 complete control), read-out: Plant response rating, Pigweed). Moreover, the pest or weed control at 500 g/ha was determined as 70% in test [1]; 80% in [2]; 0% in test [3]; 0% in [4]; 90% in test [5] (preemergence, 0 to 100 scale (0 no effect, 100 complete control), read-out: Plant response rating, Foxtail, Giant); 60% in the test with Kochia (Kochia scoparia) (preemergence, 0 to 100 scale (0 no effect, 100 complete control), read-out: Plant response rating, Kochia). The pest or weed control at 500 g/ha in test [6] (preemergence, 0 to 100 scale (0 no effect, 100 complete control), read-out: Plant response rating, Ragweed) is 0%; in [7] (preemergence, 0 to 100 scale (0 no effect, 100 complete control), read-out: Plant response rating, Barnyardgrass), 70%; in test [8] (preemergence, 0 to 100 scale (0 no effect, 100 complete control), read-out: Plant response rating, Ryegrass, Italian), 0%; in [9] (preemergence, 0 to 100 scale (0 no effect, 100 complete control), read-out: Plant response rating, Pigweed), 20%. Moreover, the pest or weed control at 250 g/ha in test [10] (360 h, visually evaluated after 13 to 15 d, read-out: Plant response rating, Ducksalad (0 to 100 scale where 0 is no effect and 100 is complete control)) amounted to 90%; in the test with rice (Oryra sativa) (360 h, visually evaluated after 13 to 15 d, read-out: Plant response rating, Rice (0 to 100 scale where 0 is no effect and 100 is complete control)), 0%; in test [11] (360 h, visually evaluated after 13 to 15 d, read-out: Plant response rating, Sedge, Umbrella (0 to 100 scale where 0 is no effect and 100 is complete control)), 20%; in test [12] (360 h, visually evaluated after 13 to 15 d, read-out: Plant response rating, Barnyardgrass (0 to 100 scale where 0 is no effect and 100 is complete control)) it was 30%.
As for `COc1cc([C@H]2CN(C)C(=O)[C@@H]2C(=O)Nc2ccccc2SC)ccc1F` [Compound 1301], the pest or weed control at 125 g/ha was found to be 20% in test [1]; 20% in [2]; 0% in [3]; 0% in [4]; 90% in [5] (preemergence, visual injury rating, 0 to 100 scale where 0 is no effect and 100 is complete control, approximately 10 d, read-out: Foxtail, Giant plant response rating); 30% in the test with Kochia (Kochia scoparia) (preemergence, visual injury rating, 0 to 100 scale where 0 is no effect and 100 is complete control, approximately 10 d, read-out: Kochia plant response rating). Also, the pest or weed control at 125 g/ha in test [6] (preemergence, visual injury rating, 0 to 100 scale where 0 is no effect and 100 is complete control, approximately 10 d, read-out: Ragweed plant response rating) was found to be 0%; in test [7] (preemergence, visual injury rating, 0 to 100 scale where 0 is no effect and 100 is complete control, approximately 10 d, read-out: Barnyardgrass plant response rating) it was 30%; in test [8] (preemergence, visual injury rating, 0 to 100 scale where 0 is no effect and 100 is complete control, approximately 10 d, read-out: Ryegrass, Italian plant response rating), 0%; in test [9] (preemergence, visual injury rating, 0 to 100 scale where 0 is no effect and 100 is complete control, approximately 10 d, read-out: Pigweed plant response rating) it was 0%. In addition, the pest or weed control at 500 g/ha in test [1] was determined as 20%; in [2] it was 90%; in test [3], 0%; in [4], 0%; in test [5] (preemergence, 0 to 100 scale where 0 is no effect and 100 is complete control, read-out: Foxtail, Giant plant response rating), 90%; with Kochia (Kochia scoparia) (preemergence, 0 to 100 scale where 0 is no effect and 100 is complete control, read-out: Kochia plant response rating), 60%. The pest or weed control at 500 g/ha is 20% in [6] (preemergence, 0 to 100 scale where 0 is no effect and 100 is complete control, read-out: Ragweed plant response rating); 90% in test [7] (preemergence, 0 to 100 scale where 0 is no effect and 100 is complete control, read-out: Barnyardgrass plant response rating); 0% in test [8] (preemergence, 0 to 100 scale where 0 is no effect and 100 is complete control, read-out: Ryegrass, Italian plant response rating); 30% in [9] (preemergence, 0 to 100 scale where 0 is no effect and 100 is complete control, read-out: Pigweed plant response rating). Moreover, the pest or weed control at 250 g/ha in [10] (0 to 100 scale where 0 is no effect and 100 is complete control, read-out: Ducksalad plant response rating) was found to be 20%; in the test on rice (Oryra sativa) (0 to 100 scale where 0 is no effect and 100 is complete control, read-out: Rice plant response rating) it was 0%; in [11] (0 to 100 scale where 0 is no effect and 100 is complete control, read-out: Sedge, Umbrella plant response rating), 0%; in test [12] (0 to 100 scale where 0 is no effect and 100 is complete control, read-out: Barnyardgrass plant response rating) it was 0%.
